Laboratory results published in ChEMBL document CHEMBL1201862, “PubChem BioAssay data set” (2004).
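How tested: cells in 96-well plates exposed to compound for 48 hours at five concentrations. Abbreviation: GI50, concentration required for 50% inhibition of growth.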 The source made the active and inactive calls. Rule as the data show it: active = GI50 up to about 1.1 µM and inactive = higher.

Tests used:
Test in all cases: NCI-60 cell line screen, 48 h
[1] = test system: 786-0
[2] = test system: A549
[3] = test system: ACHN
[4] = test system: CAKI-1
[5] = test system: HCT-116
[6] = test system: HCT-15
[7] = test system: HOP-62
[8] = test system: HOP-92
[9] = test system: HT-29
[10] = test system: K562
[11] = test system: MOLT-4
[12] = test system: OVCAR-4
[13] = test system: SF-539
[14] = test system: SK-MEL-28
[15] = test system: SK-MEL-5
[16] = test system: SK-OV-3
[17] = test system: SR
[18] = test system: U-251
[19] = test system: MCF7

SMILES	GI50 [1]	GI50 [2]	GI50 [3]	GI50 [4]	GI50 [5]	GI50 [6]	GI50 [7]	GI50 [8]	GI50 [9]	GI50 [10]	GI50 [11]	GI50 [12]	GI50 [13]	GI50 [14]	GI50 [15]	GI50 [16]	GI50 [17]	GI50 [18]	GI50 [19]
Oc1cccc(Nc2cc(O)nc(O)n2)c1	> 100 µM (inactive)	> 100 µM (inactive)	> 100 µM (inactive)	> 100 µM (inactive)	> 100 µM (inactive)	> 100 µM	> 100 µM (inactive)	66.8 µM (inactive)	> 100 µM (inactive)	> 100 µM (inactive)	> 100 µM (inactive)	> 100 µM (inactive)	> 100 µM (inactive)	> 100 µM (inactive)	> 100 µM (inactive)	67.9 µM (inactive)	> 100 µM (inactive)	> 100 µM (inactive)	
COc1ccc(/C=N/NC(=O)c2cnc3[nH]c(=O)n(C)c(=O)c3c2)cc1	34.4 µM (inactive)	> 100 µM (inactive)	44 µM (inactive)	94.8 µM (inactive)	57.5 µM (inactive)	> 100 µM	44.3 µM (inactive)		> 100 µM (inactive)	> 100 µM (inactive)	> 100 µM (inactive)	> 100 µM (inactive)		> 100 µM (inactive)	> 100 µM (inactive)	59.2 µM (inactive)		36.7 µM (inactive)	> 100 µM (inactive)
N#CCC(=O)c1cc(OCc2cc(OCc3ccc(Br)cc3)cc(OCc3ccc(Br)cc3)c2)cc(OCc2cc(OCc3ccc(Br)cc3)cc(OCc3ccc(Br)cc3)c2)c1	> 100 µM (inactive)	> 100 µM (inactive)	> 100 µM (inactive)	> 100 µM (inactive)	> 100 µM (inactive)	> 100 µM	> 100 µM (inactive)	> 100 µM (inactive)		0.264 µM (active)		> 100 µM (inactive)		> 100 µM (inactive)	> 100 µM (inactive)	> 100 µM (inactive)		> 100 µM (inactive)	> 100 µM (inactive)
C=C1CCC2(C(C)=O)COC1(C)O2 (stereo unspecified)	> 100 µM (inactive)	> 100 µM (inactive)	> 100 µM (inactive)		> 100 µM (inactive)	> 100 µM	> 100 µM (inactive)		> 100 µM (inactive)	> 100 µM (inactive)	> 100 µM (inactive)		> 100 µM (inactive)	> 100 µM (inactive)	> 100 µM (inactive)	> 100 µM (inactive)		> 100 µM (inactive)	
CCOC(=O)c1nc2ccc(C(F)(F)F)cc2nc1Oc1cc(OC)cc(OC)c1	> 100 µM (inactive)	> 100 µM (inactive)	> 100 µM (inactive)		> 100 µM (inactive)	> 100 µM	65.6 µM (inactive)	40.1 µM (inactive)	> 100 µM (inactive)	> 100 µM (inactive)	> 100 µM (inactive)	26.4 µM (inactive)	57.1 µM (inactive)	> 100 µM (inactive)	29 µM (inactive)	> 100 µM (inactive)		87.9 µM (inactive)	> 100 µM (inactive)
COc1ccc(OC)c2cc(Cc3ccc(N(C)C)cc3)c(=O)c(Cc3ccc(N(C)C)cc3)cc12	90.8 µM (inactive)	57 µM (inactive)	> 100 µM (inactive)	61 µM (inactive)	> 100 µM (inactive)	> 100 µM	58.6 µM (inactive)	> 100 µM (inactive)	> 100 µM (inactive)	34.4 µM (inactive)	> 100 µM (inactive)	> 100 µM (inactive)	86.1 µM (inactive)	> 100 µM (inactive)	63.7 µM (inactive)	> 100 µM (inactive)		53.2 µM (inactive)	> 100 µM (inactive)
COC(=O)/C=C1/CCC(C)(C(=O)NS(=O)(=O)c2ccc(C)cc2)C1(C)C (stereo unspecified)	> 100 µM (inactive)	> 100 µM (inactive)	> 100 µM (inactive)	> 100 µM (inactive)	> 100 µM (inactive)	> 100 µM	> 100 µM (inactive)	> 100 µM (inactive)		> 100 µM (inactive)	> 100 µM (inactive)	> 100 µM (inactive)	> 100 µM (inactive)	> 100 µM (inactive)	> 100 µM (inactive)	> 100 µM (inactive)		> 100 µM (inactive)	> 100 µM (inactive)
O=C1Oc2ccccc2C(=O)/C1=C/N1C(=O)N/C(=C\c2cccc(O)c2)C1=O	74.8 µM (inactive)	> 100 µM (inactive)	20.7 µM (inactive)	41 µM (inactive)	76 µM (inactive)	61.9 µM	69.7 µM (inactive)	> 100 µM (inactive)	> 100 µM (inactive)		86.5 µM (inactive)	85.9 µM (inactive)	99.5 µM (inactive)	> 100 µM (inactive)	70.8 µM (inactive)	> 100 µM (inactive)		> 100 µM (inactive)	> 100 µM (inactive)
CC1=C([S+]([O-])c2ccc(C)cc2)CCC2(CCCCO2)O1 (stereo unspecified)	> 100 µM (inactive)		> 100 µM (inactive)	> 100 µM (inactive)	> 100 µM (inactive)	> 100 µM	> 100 µM (inactive)		> 100 µM (inactive)	46.8 µM (inactive)	> 100 µM (inactive)	> 100 µM (inactive)		> 100 µM (inactive)	33.3 µM (inactive)			> 100 µM (inactive)	> 100 µM (inactive)
N#CC(/N=N/c1ccccc1C(=O)O)C(N)=O (stereo unspecified)	> 100 µM (inactive)	> 100 µM (inactive)	68.7 µM (inactive)	> 100 µM (inactive)	> 100 µM (inactive)	68.9 µM	> 100 µM (inactive)		> 100 µM (inactive)	> 100 µM (inactive)	> 100 µM (inactive)	> 100 µM (inactive)		> 100 µM (inactive)	> 100 µM (inactive)		> 100 µM (inactive)	> 100 µM (inactive)	
Cc1cc2c(cc1Cl)SC(NN(C)C)=NS2(=O)=O	> 10 µM (inactive)	> 10 µM (inactive)	> 10 µM (inactive)	> 10 µM (inactive)	> 10 µM (inactive)	> 10 µM	> 10 µM (inactive)		> 10 µM (inactive)	> 10 µM (inactive)	> 10 µM (inactive)	> 10 µM (inactive)	> 10 µM (inactive)	> 10 µM (inactive)	> 10 µM (inactive)	> 10 µM (inactive)		> 10 µM (inactive)	> 10 µM (inactive)
CC(C)(C)c1ccc2c(c1)C#Cc1cc(C(C)(C)C)ccc1OCCCO2	> 100 µM (inactive)	> 100 µM (inactive)	> 100 µM (inactive)	> 100 µM (inactive)	> 100 µM (inactive)	> 100 µM	> 100 µM (inactive)		> 100 µM (inactive)	> 100 µM (inactive)	> 100 µM (inactive)	> 100 µM (inactive)		> 100 µM (inactive)	> 100 µM (inactive)			> 100 µM (inactive)	> 100 µM (inactive)
C#CCSc1nc(N)c2ncn(C3OC(CO)C(O)C3O)c2n1 (stereo unspecified)	> 100 µM (inactive)	> 100 µM (inactive)	> 100 µM (inactive)		> 100 µM (inactive)	> 100 µM	> 100 µM (inactive)		> 100 µM (inactive)	> 100 µM (inactive)	> 100 µM (inactive)	> 100 µM (inactive)		> 100 µM (inactive)	> 100 µM (inactive)		> 100 µM (inactive)	> 100 µM (inactive)	
Cc1ccc(C)c(NC(=O)C(=O)C2C(=O)C3=C(CC2(C)C)Nc2ccccc2S3)c1 (stereo unspecified)	61.8 µM (inactive)	> 100 µM (inactive)	> 100 µM (inactive)	> 100 µM (inactive)	> 100 µM (inactive)	> 100 µM	31.6 µM (inactive)	52.1 µM (inactive)	> 100 µM (inactive)		23.9 µM (inactive)	> 100 µM (inactive)	56.9 µM (inactive)	> 100 µM (inactive)	79.8 µM (inactive)	60.4 µM (inactive)		87.9 µM (inactive)	> 100 µM (inactive)
COC[C@@H](C[C@H]1O[C@@](O)([C@H](O)[C@@H]2C[C@H](OC)[C@@H](O)CC/C=C(C)/C=C/[C@@H](O[C@@H]3O[C@@H](C)[C@H](OC)[C@@H](O)[C@@H]3O)[C@H](C)/C=C(C)/C=C(C)/C=C(\C)C(=O)O2)[C@H](C)[C@@H](O)[C@H]1C)O[C@H]1C[C@](C)(O)[C@@H](O[C@H]2C[C@@H](OC)[C@H](O)[C@@H](C)O2)C(C)O1 (stereo partly specified)	> 100 µM (inactive)	1.32 µM (inactive)	96.4 µM (inactive)	> 100 µM (inactive)	> 100 µM (inactive)	> 100 µM		> 90.2 µM (inactive)	> 100 µM (inactive)	0.149 µM (active)	2.44 µM (inactive)	41.3 µM (inactive)	> 100 µM (inactive)	> 67.8 µM (inactive)	0.182 µM (active)	> 100 µM (inactive)		0.0628 µM (active)	0.0785 µM (active)
C[N+](C)(C)/C=N\c1cccc2nsnc12	> 100 µM (inactive)	> 100 µM (inactive)	> 100 µM (inactive)	> 100 µM (inactive)	> 100 µM (inactive)	> 100 µM	> 100 µM (inactive)	> 100 µM (inactive)	> 100 µM (inactive)	> 100 µM (inactive)	> 100 µM (inactive)	> 100 µM (inactive)	> 100 µM (inactive)	> 100 µM (inactive)	> 100 µM (inactive)	> 100 µM (inactive)		> 100 µM (inactive)	> 100 µM (inactive)
NCC(O)CSCc1ccc(Cl)cc1 (stereo unspecified)	> 100 µM (inactive)	> 100 µM (inactive)	> 100 µM (inactive)	> 100 µM (inactive)	> 100 µM (inactive)	> 100 µM	> 100 µM (inactive)	> 100 µM (inactive)	> 100 µM (inactive)	> 100 µM (inactive)	> 100 µM (inactive)	> 100 µM (inactive)		> 100 µM (inactive)	> 100 µM (inactive)	> 100 µM (inactive)		> 100 µM (inactive)	> 100 µM (inactive)
